Non-standard residues stand in square brackets, D forms with d. Residues, ends and D or L forms follow the SMILES beside them.
Legend:
CD1 mice = assay: Intestinotrophic activity assessment: small bowel weight in mice; type: in vivo; settings: for % Increase in small bowel weight: CD1 mice, 2.5 μg peptide s.c. b.i.d. in PBS, sacrificed 10 or 14 days, relative to vehicle only; for % Activity (small bowel inducing activity relative to native rat GLP-2(1-33) = 100%): mice, as Example 4; for intestinotrophic activity compared with the naturally occurring molecule / rGLP-2 (in words): comment on Table 1, CD1 mice
How it was run: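 Activity expressed against native rat GLP-2(1-33) (100%) and as percent bowel-weight change over vehicle controls, from excised pylorus-to-cecum small bowel. Dosing: 2.5 μg peptide subcutaneously twice daily to 6-week female CD1 mice (n=3-4), killed at day 10 or 14 after fasting ≥20 h.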

DPP-IV [1] = molecular target: T1, DPP-IV (Homo sapiens, UniProt P27487); assay: Assay for resistance to dipeptidyl peptidase IV (RP-HPLC of cleavage product); settings: human, isolated human placental DPP-IV (dipeptidyl peptidase IV)
T1 sequence (P27487 whole entry): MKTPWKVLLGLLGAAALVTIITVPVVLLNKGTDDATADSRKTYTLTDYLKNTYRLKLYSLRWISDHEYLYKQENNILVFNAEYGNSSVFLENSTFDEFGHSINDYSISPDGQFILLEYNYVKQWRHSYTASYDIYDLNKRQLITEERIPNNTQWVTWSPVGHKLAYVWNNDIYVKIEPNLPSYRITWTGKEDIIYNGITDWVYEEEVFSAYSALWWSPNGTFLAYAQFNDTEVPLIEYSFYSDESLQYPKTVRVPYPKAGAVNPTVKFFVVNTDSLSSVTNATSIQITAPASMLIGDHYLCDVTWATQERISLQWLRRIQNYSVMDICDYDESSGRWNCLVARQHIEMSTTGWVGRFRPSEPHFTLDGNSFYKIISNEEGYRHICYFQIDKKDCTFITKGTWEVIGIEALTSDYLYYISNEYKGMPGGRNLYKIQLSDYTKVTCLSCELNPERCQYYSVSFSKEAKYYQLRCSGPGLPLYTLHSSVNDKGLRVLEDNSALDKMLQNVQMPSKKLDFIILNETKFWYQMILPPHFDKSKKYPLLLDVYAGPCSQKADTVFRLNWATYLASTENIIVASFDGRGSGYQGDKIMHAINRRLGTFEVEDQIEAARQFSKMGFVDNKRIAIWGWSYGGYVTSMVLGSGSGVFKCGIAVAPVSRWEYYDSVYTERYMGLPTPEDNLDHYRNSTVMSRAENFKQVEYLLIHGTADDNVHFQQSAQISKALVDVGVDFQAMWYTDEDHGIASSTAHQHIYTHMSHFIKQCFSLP
Protocol: (§3) The mixture was incubated at 37° C. in a circulating water bath for 24 hours. The incubation was quenched by the addition of 50 μl of a solution of diprotin A prepared at a concentration of 4 mg/ml in PBS. Each peptide was tested in duplicate.
(§4) Each sample was analyzed by reverse-phase (RP) HPLC as follows: 90 μl of the quenched incubation mixture was injected onto a Rainin Dynamax 300 Å, C18, 5 micron, 4.6×250 millimeter column. The samples were eluted with 0.1% trifluoroacetic acid (TFA) in water modified with 0.1% acetonitrile using a linear gradient and a flow rate of 1 ml per minute. Sample components were detected at 214 nanometers (nm). The extent of cleavage was measured by relative integration of the peak corresponding to the cleavage product compared to that of the remaining undigested parent peptide.

human placental DPP-IV = human placental DPP-IV (Homo sapiens, UniProt P27487); assay: as above; settings: human placental DPP-IV 0.125 mU, peptide 0.2 mg/ml, PBS pH 7.4, 37° C.
Chain of human placental DPP-IV (P27487 whole entry): as above
Protocol: as §3, §4

DPP-IV [2] = molecular target: T1, DPP-IV; assay: in vitro; settings: isolated enzyme dpp iv, pH 7.4, % Cleaved by DPP-IV
Protocol: as §3, §4

Sprague-Dawley rats = assay: Small bowel weight in normal Sprague-Dawley rats; type: in vivo; settings: gelatin formulation, vs vehicle
Protocol: (§1) The following experiments were conducted to confirm that the increase in bowel weight seen in experimental animals treated with DPP-IV resistant analogs of GLP-2, compared with animals treated with wild-type GLP-2, was attributable in part to the DPP-IV resistant nature of the molecules. This experiment took advantage of the availability of a DPP-IV deficient rat strain, Fisher 334 DPP-IV-rats. The effect of rGLP-2 injections on small bowel weight in the Fisher DPP-IV deficient rats was compared to that in normal Sprague-Dawley rats.
(§2) In the following experiments the Sprague-Dawley rats were injected s.c. twice daily with rGLP-2 in the Gelatin formulation. The Fisher rats were injected s.c. twice daily with GLP-2 peptides (both rGLP-2, and rGLP-2 analogs) in PBS.

Fisher 334 DPP-IV-rats = assay: Small bowel weight in DPP-IV deficient Fisher rats; type: in vivo; settings: 20 μg b.i.d. s.c. in PBS, vs vehicle
Protocol: as §1, §2

[3] = system: Fisher 344 wild-type rats; assay: Small bowel weight in Fisher 344 wild-type rats; type: in vivo; settings: 20 μg b.i.d. s.c. in PBS, over vehicle control
Protocol: as §2

[4] = pH 7.4, % Cleaved by DPP-IV, as Example 3: human placental DPP-IV, 37° C., PBS pH 7.4

Compound	% Increase in small bowel weight (CD1 mice)	% Activity (small bowel inducing activity relative to native rat GLP-2(1-33) = 100%) (CD1 mice)	metabolised at 24 h, 0.19 mg/ml (DPP-IV [1]; [4])	cleaved by DPP-IV after the 24 hour incubation (human placental DPP-IV)	intestinotrophic activity compared with the naturally occurring molecule / rGLP-2 (in words) (CD1 mice)	metabolised at 24 h, 0.19 mg/ml (DPP-IV [2])	% change in small bowel weight (Sprague-Dawley rats; 2.5 μg b.i.d. s.c.)	% change in small bowel weight (Sprague-Dawley rats; 25 μg b.i.d. s.c.)	increase in % change in small bowel weight (Fisher 334 DPP-IV-rats)	metabolised at 24 h, 0.19 mg/ml (DPP-IV [1]; pH 7.4, cleaved by DPP-IV after the 24 hour incubation, human placental DPP-IV 0.125 mU, peptide 0.2 mg/ml, PBS pH 7.4, 37° C.)	increase in small bowel weight [3]
CC[C@H](C)[C@H](NC(=O)[C@H](Cc1ccccc1)NC(=O)[C@H](CC(=O)O)NC(=O)[C@H](CCCNC(=N)N)NC(=O)[C@@H](NC(=O)[C@H](C)NC(=O)[C@H](CC(C)C)NC(=O)[C@H](CC(N)=O)NC(=O)[C@H](CC(=O)O)NC(=O)[C@H](CC(C)C)NC(=O)[C@@H](NC(=O)[C@@H](NC(=O)[C@H](CC(N)=O)NC(=O)[C@H](CCSC)NC(=O)[C@H](CCC(=O)O)NC(=O)[C@H](CC(=O)O)NC(=O)[C@H](CO)NC(=O)[C@H](Cc1ccccc1)NC(=O)[C@H](CO)NC(=O)CNC(=O)[C@H](CC(=O)O)NC(=O)[C@@H](C)NC(=O)[C@@H](N)Cc1c[nH]cn1)[C@@H](C)O)[C@@H](C)CC)[C@@H](C)O)C(=O)N[C@@H](CC(N)=O)C(=O)N[C@@H](Cc1c[nH]c2ccccc12)C(=O)N[C@@H](CC(C)C)C(=O)N[C@H](C(=O)N[C@@H](CCC(N)=O)C(=O)N[C@H](C(=O)N[C@@H](CCCCN)C(=O)N[C@H](C(=O)N[C@H](C(=O)N[C@@H](CC(=O)O)C(=O)O)[C@@H](C)O)[C@@H](C)CC)[C@@H](C)O)[C@@H](C)CC [[DAla2]ratGLP-2(1-33)] (H-H[dA]DGSFSDEMNTILDNLATRDFINWLIQTKITD-OH)	86%	210%	0%	No cleavage products were detected							
CC[C@H](C)[C@H](NC(=O)[C@H](Cc1ccccc1)NC(=O)[C@H](CC(=O)O)NC(=O)[C@H](CCCNC(=N)N)NC(=O)[C@H](C)NC(=O)[C@H](C)NC(=O)[C@H](CC(C)C)NC(=O)[C@H](CC(N)=O)NC(=O)[C@H](CC(=O)O)NC(=O)[C@H](CC(C)C)NC(=O)[C@@H](NC(=O)[C@@H](NC(=O)[C@H](CC(N)=O)NC(=O)[C@H](CCSC)NC(=O)[C@H](CCC(=O)O)NC(=O)[C@H](CC(=O)O)NC(=O)[C@H](CO)NC(=O)[C@H](Cc1ccccc1)NC(=O)[C@H](CO)NC(=O)CNC(=O)[C@H](CC(=O)O)NC(=O)CNC(=O)[C@@H](N)Cc1c[nH]cn1)[C@@H](C)O)[C@@H](C)CC)C(=O)N[C@@H](CC(N)=O)C(=O)N[C@@H](Cc1c[nH]c2ccccc12)C(=O)N[C@@H](CC(C)C)C(=O)N[C@H](C(=O)N[C@@H](CCC(N)=O)C(=O)N[C@H](C(=O)N[C@@H](CCCCN)C(=O)N[C@H](C(=O)N[C@H](C(=O)N[C@@H](CC(=O)O)C(=O)O)[C@@H](C)O)[C@@H](C)CC)[C@@H](C)O)[C@@H](C)CC [[Gly2]hGLP-2(1-33)]	59%	300%			substantially increased	0%					
H-HADGSFSDEMNTILDNLATRDFINWLIQTKITD-OH [ratGLP-2(1-33), reference compound]	45%	100%	58%				no % change	no % change	40-50%	22%	
H-HGDGSFSDEMNTILDNLATRDFINWLIQTKITD-OH [[Gly2]ratGLP-2(1-33)]	70%	196%	0%	No cleavage products were detected	greatly enhanced				50-60%		75-85%
